Source: US9566312B2, “Cyclic peptides and use as medicines” (priority 2012, dated 2017)
Like-named read-outs stand apart in the source and are kept apart here. Starred links: 1 amine or outer side, 2 acyl side, 3 side chain; linkers in the order of their positions; H or OH if unused. Non-standard residues stand in square brackets, D forms with d. Residues, ends and D or L forms follow the SMILES beside them. X74 = C[C@H](CCN1CCN2C(=O)OC[C@@H]2C1)[C@@H](C(=O)[*:2])N(C)[*:1]; X45 = C[C@H](CCC(=O)N1CC2CCC(C1)O2)[C@@H](C(=O)[*:2])N(C)[*:1]; X54 = CCOC(=O)N1CCN(C[C@@H](C)[C@@H](C(=O)[*:2])N(C)[*:1])CC1; X28 = CCN1CCN(C(=O)OC[C@H](C)[C@@H](C(=O)[*:2])N(C)[*:1])CC1; X49 = C[C@H](CCC(=O)N1CCN(C)CC1)[C@@H](C(=O)[*:2])N(C)[*:1]; X67 = C[C@H](CCN1CCOC[C@@H]1C)[C@@H](C(=O)[*:2])N(C)[*:1]; X34 = C[C@H](COC(=O)N1CCOCC1)[C@@H](C(=O)[*:2])N(C)[*:1]; X68 = C[C@H](CCN1CCC(C#N)CC1)[C@@H](C(=O)[*:2])N(C)[*:1]; X32 = C[C@H](CN1CC2(COC2)C1)[C@@H](C(=O)[*:2])N(C)[*:1]; MeBmt = C/C=C/C[C@@H](C)[C@@H](O)[C@H](NC)C(=O)O; NMeL = CN[C@@H](CC(C)C)C(=O)O; NMeV = CN[C@H](C(=O)O)C(C)C; dNMeA = CN[C@H](C)C(=O)O; Abu = CC[C@H](N)C(=O)O

Legend:
cyclophilin A (CypA) = cyclophilin A (CypA) (Homo sapiens (Human), UniProt P62937); assay: Inhibitor binding to cyclophilin proteins by SPR, CypA; set-up: unit not given here; conditions: 1:1 binding model;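 also: Single-cycle kinetics on a Biacore T200, compound injected at several concentrations for 1 min each at 50 µL/min, then 10 min dissociation, in HEPES pH 7.4 buffer with 3% DMSO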
cyclophilin B (CypB) = cyclophilin B (CypB) (Homo sapiens (Human), UniProt P23284); assay: Inhibitor binding to cyclophilin proteins by SPR, CypB; set-up: unit not given here; conditions: 1:1 binding model
Method in brief: (§1)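 Mono-biotinylated avi-tagged cyclophilins were captured on a Biotin CAPture chip and compound injected by single-cycle kinetics in 10 mM HEPES pH 7.4, 150 mM NaCl, 0.05% P20, 3% DMSO. Contact 1 min per concentration at 50 μL/min, 10 min final dissociation; 1:1 model fit gave kon, koff, KD.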

CypF = CypF (Homo sapiens (Human), UniProt P30405); assay: Inhibitor binding to cyclophilin proteins by SPR, CypF; conditions: 1:1 binding model
Method in brief: as §1

[1] = tested on: genotype 1b subgenomic HCV replicon in Huh7.5 cells; assay type: cell-based, hepatitis C virus; conditions: read-out: RPLN-1b IC50
Method in brief: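 Replicon inhibition read as renilla luciferase signal versus DMSO controls after 72 h incubation, in Huh7.5 cells harbouring a genotype 1b subgenomic replicon; medium phenol red-free DMEM lacking G418. CC50 determined in parallel via Cell Titer-Glo.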

[2] = tested on: peripheral blood mononuclear cells (PBMC); assay: Anti-proliferative or immunosuppressive activity, BrdU incorporation in PHA-stimulated PBMC; assay type: cell-based; conditions: PHA 3 μg/ml, 60 hour compound treatment; read-out: EMV PBMC IC50
Method in brief: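 BrdU ELISA read-out of DNA synthesis in freshly isolated PBMCs (two donors, 30,000 cells/well, X-VIVO 15). T-cell proliferation triggered with phytohemagglutinin at 3 μg/ml.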

[3] = molecular target: organic anion transporting polypeptide 1B1 (OATP1B1) (Homo sapiens (Human), UniProt Q9Y6L6); assay: OATP assay in CHO-OATP1B1 cells;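 also: inhibition of probe substrate uptake into the cells, ten minutes exposure, accumulated substrate read by fluorescence once cells were lysed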
[4] = genotype 1b replicon, 72 h incubation

Sequence of organic anion transporting polypeptide 1B1 (OATP1B1) (Q9Y6L6 whole entry): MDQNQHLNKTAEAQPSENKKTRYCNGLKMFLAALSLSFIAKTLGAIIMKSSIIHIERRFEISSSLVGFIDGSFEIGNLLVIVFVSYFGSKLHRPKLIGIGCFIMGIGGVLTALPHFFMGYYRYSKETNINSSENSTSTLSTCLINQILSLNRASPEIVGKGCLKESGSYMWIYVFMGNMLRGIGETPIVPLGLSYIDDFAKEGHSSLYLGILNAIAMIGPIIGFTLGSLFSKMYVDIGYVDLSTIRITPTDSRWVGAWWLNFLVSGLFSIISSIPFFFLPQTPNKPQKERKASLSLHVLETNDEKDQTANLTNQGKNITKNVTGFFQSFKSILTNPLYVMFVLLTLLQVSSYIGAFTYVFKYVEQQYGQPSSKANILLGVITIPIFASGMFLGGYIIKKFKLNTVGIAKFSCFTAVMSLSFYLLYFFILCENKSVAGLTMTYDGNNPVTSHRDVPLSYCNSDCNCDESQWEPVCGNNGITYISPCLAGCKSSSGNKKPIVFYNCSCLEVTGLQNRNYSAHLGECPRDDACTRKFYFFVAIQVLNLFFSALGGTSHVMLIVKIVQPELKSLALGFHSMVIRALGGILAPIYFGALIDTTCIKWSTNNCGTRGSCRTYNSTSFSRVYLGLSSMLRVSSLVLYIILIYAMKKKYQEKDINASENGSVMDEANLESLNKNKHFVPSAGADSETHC
Sequence of cyclophilin B (CypB) (P23284 34-216): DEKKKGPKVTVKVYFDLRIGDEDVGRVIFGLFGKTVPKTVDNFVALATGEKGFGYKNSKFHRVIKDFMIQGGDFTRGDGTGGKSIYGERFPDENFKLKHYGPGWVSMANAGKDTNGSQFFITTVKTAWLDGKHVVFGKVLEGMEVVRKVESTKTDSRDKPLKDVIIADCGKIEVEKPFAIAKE
Sequence of cyclophilin A (CypA) (P62937 whole entry): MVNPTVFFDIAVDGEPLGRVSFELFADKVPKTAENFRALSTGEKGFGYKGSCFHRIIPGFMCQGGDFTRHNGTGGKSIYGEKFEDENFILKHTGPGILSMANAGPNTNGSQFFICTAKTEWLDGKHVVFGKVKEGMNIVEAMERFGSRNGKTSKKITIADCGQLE
Sequence of CypF (P30405 30-207): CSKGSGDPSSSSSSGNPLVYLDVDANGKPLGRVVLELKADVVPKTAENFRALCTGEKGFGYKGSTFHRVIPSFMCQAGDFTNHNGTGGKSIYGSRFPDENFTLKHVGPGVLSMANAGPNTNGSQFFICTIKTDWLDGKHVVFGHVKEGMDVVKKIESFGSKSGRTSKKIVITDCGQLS

Row | SMILES | CypA Kd (cyclophilin A (CypA)) | CypB Kd (cyclophilin B (CypB)) | CypF Kd (CypF) [nM] | IC50 [1, 4] [nM] | IC50 [2] [nM] | IC50 [3] [nM] | IC50 [1] [nM]
1 | C/C=C/C[C@@H](C)[C@@H](O)[C@H]1C(=O)N[C@@H](CC)C(=O)N(C)[C@H](C)C(=O)N(C)[C@@H]([C@H](C)CCN2CCN3C(=O)OC[C@@H]3C2)C(=O)N[C@@H](C(C)C)C(=O)N(C)[C@@H](CC(C)C)C(=O)N[C@@H](C)C(=O)N[C@H](C)C(=O)N(C)[C@@H](CC(C)C)C(=O)N(C)[C@@H](CC(C)C)C(=O)N(C)[C@@H](C(C)C)C(=O)N1C [Compound 2.18.9, 3-[D-Ala]-4-[(2S,3R)-3-methyl-2-(methylamino)-5-((S)-3-oxotetrahydro-1H-oxazolo[3,4-a]pyrazin-7(3H)-yl)pentanoyl]-cyclosporin] (cyclo(A[dA][NMeL][NMeL][NMeV][MeBmt][Abu][dNMeA][X74]V[NMeL])) | 1.8 | 2.7 | 1 | 170 | 9200 | 2800 | 
2 | C/C=C/C[C@@H](C)[C@@H](O)[C@H]1C(=O)N[C@@H](CC)C(=O)N(C)[C@H](C)C(=O)N(C)[C@@H]([C@@H](C)COC(=O)N2CCN(CC)CC2)C(=O)N[C@@H](C(C)C)C(=O)N(C)[C@@H](CC(C)C)C(=O)N[C@@H](C)C(=O)N[C@H](C)C(=O)N(C)[C@@H](CC(C)C)C(=O)N(C)[C@@H](CC(C)C)C(=O)N(C)[C@@H](C(C)C)C(=O)N1C [Compound 2.17.14, 3-[D-Ala]-4-[(2S,3R)-4-((4-ethylpiperazine-1-carbonyl)oxy)-3-methyl-2-(methylamino)butanoyl]-cyclosporin] (cyclo(A[dA][NMeL][NMeL][NMeV][MeBmt][Abu][dNMeA][X28]V[NMeL])) | 0.5 | 0.4 | 0.5 | 57 | 8100 | 2200 | 
3 | C/C=C/C[C@@H](C)[C@@H](O)[C@H]1C(=O)N[C@@H](CC)C(=O)N(C)[C@H](C)C(=O)N(C)[C@@H]([C@H](C)COC(=O)N2CCOCC2)C(=O)N[C@@H](C(C)C)C(=O)N(C)[C@@H](CC(C)C)C(=O)N[C@@H](C)C(=O)N[C@H](C)C(=O)N(C)[C@@H](CC(C)C)C(=O)N(C)[C@@H](CC(C)C)C(=O)N(C)[C@@H](C(C)C)C(=O)N1C [Compound 2.5.7, 3-[D-Ala]-4-[(2S,3S)-3-methyl-2-(methylamino)-4-((morpholine-4-carbonyl)oxy)butanoyl]-cyclosporin] (cyclo([MeBmt][Abu][dNMeA][X34]V[NMeL]A[dA][NMeL][NMeL][NMeV])) | 2.1 | 1.3 | 1.5 |  | 19300 | 2300 | 48
4 | C/C=C/C[C@@H](C)[C@@H](O)[C@H]1C(=O)N[C@@H](CC)C(=O)N(C)[C@H](C)C(=O)N(C)[C@@H]([C@H](C)CCN2CCC(C#N)CC2)C(=O)N[C@@H](C(C)C)C(=O)N(C)[C@@H](CC(C)C)C(=O)N[C@@H](C)C(=O)N[C@H](C)C(=O)N(C)[C@@H](CC(C)C)C(=O)N(C)[C@@H](CC(C)C)C(=O)N(C)[C@@H](C(C)C)C(=O)N1C [Compound 2.18.2, 3-[D-Ala]-4-[(2S,3R)-5-(4-cyanopiperidin-1-yl)-3-methyl-2-(methylamino)pentanoyl]-cyclosporin] (cyclo(A[dA][NMeL][NMeL][NMeV][MeBmt][Abu][dNMeA][X68]V[NMeL])) | 1.1 | 0.7 | 0.6 | 58 | 7300 | 2400 | 
5 | C/C=C/C[C@@H](C)[C@@H](O)[C@H]1C(=O)N[C@@H](CC)C(=O)N(C)[C@H](C)C(=O)N(C)[C@@H]([C@H](C)CN2CC3(COC3)C2)C(=O)N[C@@H](C(C)C)C(=O)N(C)[C@@H](CC(C)C)C(=O)N[C@@H](C)C(=O)N[C@H](C)C(=O)N(C)[C@@H](CC(C)C)C(=O)N(C)[C@@H](CC(C)C)C(=O)N(C)[C@@H](C(C)C)C(=O)N1C [Compound 2.5.16, 3-[D-Ala]-4-[(2S,3R)-3-methyl-2-(methylamino)-4-(2-oxa-6-azaspiro[3.3]heptan-6-yl)butanoyl]-cyclosporin] (cyclo(A[dA][NMeL][NMeL][NMeV][MeBmt][Abu][dNMeA][X32]V[NMeL])) | 1.4 | 0.7 | 0.7 | 10 | 18000 | 3400 | 
6 | C/C=C/C[C@@H](C)[C@@H](O)[C@H]1C(=O)N[C@@H](CC)C(=O)N(C)[C@H](C)C(=O)N(C)[C@@H]([C@H](C)CN2CCN(C(=O)OCC)CC2)C(=O)N[C@@H](C(C)C)C(=O)N(C)[C@@H](CC(C)C)C(=O)N[C@@H](C)C(=O)N[C@H](C)C(=O)N(C)[C@@H](CC(C)C)C(=O)N(C)[C@@H](CC(C)C)C(=O)N(C)[C@@H](C(C)C)C(=O)N1C [Compound 2.5.31, 3-[D-Ala]-4-[(2S,3R)-4-(4-(ethoxycarbonyl)piperazin-1-yl)-3-methyl-2-(methylamino)butanoyl]-cyclosporin] (cyclo(A[dA][NMeL][NMeL][NMeV][MeBmt][Abu][dNMeA][X54]V[NMeL])) | 2.5 | 1.1 | 1.3 | 55 | 18900 | 2100 | 
7 | C/C=C/C[C@@H](C)[C@@H](O)[C@H]1C(=O)N[C@@H](CC)C(=O)N(C)[C@H](C)C(=O)N(C)[C@@H]([C@H](C)CCC(=O)N2CCN(C)CC2)C(=O)N[C@@H](C(C)C)C(=O)N(C)[C@@H](CC(C)C)C(=O)N[C@@H](C)C(=O)N[C@H](C)C(=O)N(C)[C@@H](CC(C)C)C(=O)N(C)[C@@H](CC(C)C)C(=O)N(C)[C@@H](C(C)C)C(=O)N1C [Compound 2.14.3, 3-[D-Ala]-4-[(2S,3R)-3-methyl-2-(methylamino)-6-(4-methylpiperazin-1-yl)-6-oxohexanoyl]-cyclosporin] (cyclo(A[dA][NMeL][NMeL][NMeV][MeBmt][Abu][dNMeA][X49]V[NMeL])) | 2.0 | 0.9 | 0.9 | 190 | 14100 | 5400 | 
8 | C/C=C/C[C@@H](C)[C@@H](O)[C@H]1C(=O)N[C@@H](CC)C(=O)N(C)[C@H](C)C(=O)N(C)[C@@H]([C@H](C)CCN2CCOC[C@@H]2C)C(=O)N[C@@H](C(C)C)C(=O)N(C)[C@@H](CC(C)C)C(=O)N[C@@H](C)C(=O)N[C@H](C)C(=O)N(C)[C@@H](CC(C)C)C(=O)N(C)[C@@H](CC(C)C)C(=O)N(C)[C@@H](C(C)C)C(=O)N1C [Compound 2.18.4] (cyclo(A[dA][NMeL][NMeL][NMeV][MeBmt][Abu][dNMeA][X67]V[NMeL])) | 1.2 | 0.7 | 0.7 | 44 | 10600 | 1700 | 
9 | C/C=C/C[C@@H](C)[C@@H](O)[C@H]1C(=O)N[C@@H](CC)C(=O)N(C)[C@H](C)C(=O)N(C)[C@@H]([C@H](C)CCC(=O)N2CC3CCC(C2)O3)C(=O)N[C@@H](C(C)C)C(=O)N(C)[C@@H](CC(C)C)C(=O)N[C@@H](C)C(=O)N[C@H](C)C(=O)N(C)[C@@H](CC(C)C)C(=O)N(C)[C@@H](CC(C)C)C(=O)N(C)[C@@H](C(C)C)C(=O)N1C [Compound 2.14.2, 3-[D-Ala]-4-[(2S,3R)-6-(8-oxa-3-azabicyclo[3.2.1]octan-3-yl)-3-methyl-2-(methylamino)-6-oxohexanoyl]-cyclosporin] (cyclo(A[dA][NMeL][NMeL][NMeV][MeBmt][Abu][dNMeA][X45]V[NMeL])) | 2.4 | 0.9 | 1 | 75 | 6700 | 1900 | 
